Data published in US20080275009A1, “ORAL ADMINISTRATION OF N-(2-CHLORO-6-METHYLPHENYL)-2-[[6-[4-(2-HYDROXYETHYL)-1-PIPERAZINYL]-2-METHYL-4-PYRIMIDINYL]AMINO]-1,3-THIAZOLE-5-CARBOXAMIDE AND SALTS THEREOF” (Bristol-Myers Squibb Company, priority 2005, published 2008).

Columns and labels:
[1] = aqueous solubility of Compound I as a function of pH; format: physicochemical; conditions: aqueous medium, pH of 2 compared with pH of 5
PDGF receptor = conditions: general statement, method or value not given; cited from earlier work
EPH receptor = conditions: general statement, method or value not given; cited from earlier work

Cc1nc(Nc2ncc(C(=O)Nc3c(C)cccc3Cl)s2)cc(N2CCN(CCO)CC2)n1 [Compound I, N-(2-chloro-6-methylphenyl)-2-((6-(4-(2-hydroxyethyl)-1-piperazinyl)-2-methyl-4-pyrimidinyl)amino)-1,3-thiazole-5-carboxamide]
aqueous solubility [1]: higher solubility at a pH of 2 than at a pH of 5
inhibition of PDGF receptor (PDGF receptor): potent inhibitor
inhibition of EPH receptor (EPH receptor): potent inhibitor
